Experimental findings from US5916887A, “4-substituted-3-(2-amino-2-cycloalkyl methyl)-acetamido azetidin-2-one derivatives as cysteine proteinase regulators” (National Research Council of Canada, priority 1997, dated 1999) are described below.

Test [1] addresses T1, cathepsin B (Rattus norvegicus, UniProt P00787). As to the kind of experiment: In vitro assay procedure for cathepsin B (recombinant rat cathepsin B, N-CBZ-Phe-Arg-AMC substrate). The note with it: pH 5.1, 10 min incubation at room temperature. The format is biochemical. The protocol:
In vitro assay procedure for cathepsin B
The compounds of formula I are tested for inhibition of cathepsin B using the known method (A. J. Barret et al., Biochem. J. 1982, 201, 189-198). To 170 μl of an enzyme-buffer mixture (enzyme: recombinant rat cathepsin B, diluted to give approximate 10 Fluorescence units/min, buffer: 56 mM sodium acetate, 1.124 mM EDTA, 10 mM DTT, pH 5.1) 10 μL of inhibitor (dissolved in DMSO) is added. After 10 min of incubation at room temperature, a 20 μl of 5 mM substrate (N-CBZ-Phe-Arg-AMC, dissolved in DMSO) is added to initiate reaction. Reading is followed up for 10 min on a Fluoroskan fluorescence reader (excitation at 380 nm, emission at 460 nm).
(§1) A plot of percentage of inhibition vs inhibitor concentration is obtained, and IC50 is determined using a linear regression calculation (concentration of inhibitor which will give 50% inhibition).
Target sequence in this assay (P00787 80-339): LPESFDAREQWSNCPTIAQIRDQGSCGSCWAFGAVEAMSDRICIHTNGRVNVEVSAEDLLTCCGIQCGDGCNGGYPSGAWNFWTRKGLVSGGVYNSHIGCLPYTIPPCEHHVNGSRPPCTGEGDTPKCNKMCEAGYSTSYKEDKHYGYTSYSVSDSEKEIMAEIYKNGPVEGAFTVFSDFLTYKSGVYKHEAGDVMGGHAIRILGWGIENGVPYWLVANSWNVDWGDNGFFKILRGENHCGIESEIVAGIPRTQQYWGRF

In test [2] the target is T2, cathepsin L (Rattus norvegicus, UniProt P07154). The test is described as follows: In vitro assay procedure for cathepsin L (recombinant rat cathepsin L, N-CBZ-Phe-Arg-AMC substrate). The class given is biochemical. The note with it: pH 5.0, 10 min incubation at room temperature. How it is done:
In vitro assay procedure for cathepsin L
To 170 μl of enzyme-buffer mixture (enzyme: recombinant rat cathepsin L, diluted to give approximate 15 Fluorescence units/min, buffer: 58.8 mM sodium citrate, 1.18 mM EDTA, 235 mM sodium chloride, 5 mM DTT, pH 5.0) 10 μL of inhibitor (dissolved in DMSO) is added. After 10 min of incubation at room temperature, 20 μl of 1 mM substrate (N-CBZ-Phe-Arg-AMC, dissolved in DMSO) is added to initiate reaction. Reading is followed up for 10 min on a Fluoroskan fluorescence reader (excitation at 380 nm emission at 460 nm).
as §1
Target sequence in this assay (P07154 114-334): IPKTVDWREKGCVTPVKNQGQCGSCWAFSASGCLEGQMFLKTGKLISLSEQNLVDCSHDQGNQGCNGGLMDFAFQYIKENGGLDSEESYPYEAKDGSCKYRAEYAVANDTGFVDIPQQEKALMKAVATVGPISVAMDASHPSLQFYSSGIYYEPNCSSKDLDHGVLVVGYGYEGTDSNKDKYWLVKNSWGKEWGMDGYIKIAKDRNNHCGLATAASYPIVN

The test system of test [3] is cathepsin B. The test is described as follows: In vivo inhibition test for cathepsin B, mouse liver ML fraction. The conditions noted are these: 50 mg/kg intraperitoneal, 6 hours, mean for 3 animals. How it is done: (§2) In vivo inhibition test for cathepsin B and L
(§3) The in vivo inhibition of cathepsin B and L are tested according to the known method (T. Towatari et al, FEBS, 1991, 280, 311-315). Inhibitor is injected intraperitoneally into rodents as a solution in saline containing DMSO or DMSO:PEG400 (1:1) at the doses indicated in Table 2. The rodents are killed after 6 hours, and the liver is perfused with ice-cold saline, and chilled on ice. Sample of 4 g of liver are homogenized in 7 volumes of 0.25 M sucrose. The homogenate is centrifuged at 800 g for 15 min. and the supernatant is centrifuged at 12,000 g for 30 min. The precipitate (crude mitochondrial-lysosomal fraction; ML fraction) is suspended in 2 ml of 0.05 M acetate buffer, pH 5.0, and then freeze-thawed for measurements of cathepsin B and L.

Test [4] relates to cathepsin L. As to the kind of experiment: In vivo inhibition test for cathepsin L, mouse liver ML fraction. The conditions noted are these: 50 mg/kg intraperitoneal, 6 hours, mean for 3 animals. How it is done:
as §2, §3

For test [5], the target named is T1, cathepsin B. As to the kind of experiment: In vivo inhibition test for cathepsin B, rat liver ML fraction. More on the design: The precipitate (crude mitochondrial-lysosomal fraction; from tissue; host or cells: liver, crude mitochondrial-lysosomal (ML) fraction of dosed rodents. The note with it: 6 hours, mean for 3 animals. How it is done: as §2, §3
Target sequence in this assay (P00787 80-126 limits assumed): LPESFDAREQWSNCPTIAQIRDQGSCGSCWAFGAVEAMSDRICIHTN
Target sequence in this assay (P00787 129-333 limits assumed): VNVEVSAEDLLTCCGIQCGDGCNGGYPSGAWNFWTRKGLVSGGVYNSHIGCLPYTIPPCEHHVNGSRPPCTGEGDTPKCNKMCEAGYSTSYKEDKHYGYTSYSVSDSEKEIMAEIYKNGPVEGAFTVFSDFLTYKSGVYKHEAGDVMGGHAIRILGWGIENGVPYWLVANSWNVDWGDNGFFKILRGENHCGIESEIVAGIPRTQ
Test [6] addresses T2, cathepsin L. As to the kind of experiment: In vivo inhibition test for cathepsin L, rat liver ML fraction. More on the design: The precipitate (crude mitochondrial-lysosomal fraction; from tissue; host or cells: liver, crude mitochondrial-lysosomal (ML) fraction of dosed rodents. The note with it: 6 hours, mean for 3 animals. The protocol:
as §2, §3
Target sequence in this assay (P07154 114-288 limits assumed): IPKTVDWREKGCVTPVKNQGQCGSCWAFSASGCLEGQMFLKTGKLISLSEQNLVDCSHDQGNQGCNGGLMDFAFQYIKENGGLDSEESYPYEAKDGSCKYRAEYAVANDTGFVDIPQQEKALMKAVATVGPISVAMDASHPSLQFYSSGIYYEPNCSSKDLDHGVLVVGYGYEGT
Target sequence in this assay (P07154 291-334 limits assumed): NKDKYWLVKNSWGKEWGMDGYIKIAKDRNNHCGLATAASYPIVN

SMILES strings stand for the structures.

In the case of `CC(=O)O[C@@H]1NC(=O)[C@H]1NC(=O)[C@H](CC1CCCCC1)NC(=O)OCc1ccccc1` [Example 1, (3S,4S)-3-(2S-2-benzyloxycarbonylamino-2-cyclohexylmethyl-acetamido)-4-acetoxy-azetidin-2-one], the IC50 (in general, the midpoint of a concentration-inhibition curve) on cathepsin B [1] amounted to 8710 nM; on cathepsin L [2] it was 780 nM.
For `CC(=O)O[C@@H]1NC(=O)[C@H]1NC(=O)[C@H](CC1CCCCC1)NC(=O)CCc1ccccc1` [Example 2, (3S,4S)-3-{2S-2-(3-phenylpropionoyl)amino-2-cyclohexylmethyl-acetamido}-4-acetoxy-azetidin-2-one] the same measures were 11600 nM and 2320 nM.
As for `N[C@@H](Cc1ccc(O[C@@H]2NC(=O)[C@H]2NC(=O)[C@H](CC2CCCCC2)NC(=O)CCc2ccccc2)cc1)C(=O)O` [Example 3, (3S,4S)-3-{2S-2-(3-phenylpropionoyl)amino-2-cyclohexylmethyl-acetamido}-4-{4-(2S-2-amino-2-carboxy-ethyl)-phenoxy}-azetidin-2-one], the results for the IC50 on cathepsin B [1] and at cathepsin L [2] were 34000 nM and 1820 nM, respectively. For the same compound, the “Inhibition Cathepsin B” value with cathepsin B [3] is reported as 65%. For the same compound, in the test on cathepsin L [4], the “Inhibition Cathepsin L” value amounted to 55%.
`N[C@@H](Cc1ccc(O[C@H]2NC(=O)[C@H]2NC(=O)[C@H](CC2CCCCC2)NC(=O)CCc2ccccc2)cc1)C(=O)O` [Example 4, (3S,4R)-3-{2S-2-(3-phenylpropionoyl)amino-2-cyclohexylmethyl-acetamido}-4-{4-(2S-2-amino-2-carboxy-ethyl)-phenoxy}-azetidin-2-one]: the IC50 is 9200 nM at cathepsin B [1] and 1800 nM on cathepsin L [2].
`O=C(CCc1ccccc1)N[C@@H](CC1CCCCC1)C(=O)N[C@H]1C(=O)NC1Sc1ccccc1` (stereo partly drawn) [Example 5, (3S,4SR)-3-{2S-2-(3-phenylpropionoyl)amino-2-cyclohexylmethyl-acetamido}-4-phenylthio-azetidin-2-one]: the values for the IC50 at cathepsin B [1] and at cathepsin L [2] were 10400 nM and 16 nM, respectively.
The corresponding values for `O=C(CCc1ccccc1)N[C@@H](CC1CCCCC1)C(=O)N[C@H]1C(=O)NC1S(=O)(=O)c1ccccc1` (stereo partly drawn) [Example 6, (3S,4SR)-3-{2S-2-(3-phenylpropionoyl)amino-2-cyclohexylmethyl-acetamido}-4-phenylsulfonyl-azetidin-2-one] are 29000 nM and 78 nM.
The corresponding values for `CC(=O)O[C@@H]1NC(=O)[C@H]1NC(=O)[C@H](CC1CCCCC1)NC(=O)NCc1ccccc1` [Example 7, (3S,4S)-3-{2S-2-(benzylaminocarbonyl)amino-2-cyclohexylmethyl-acetamido}-4-acetoxy-azetidin-2-one] are 11600 nM and 2300 nM.
The corresponding values for `CC(=O)O[C@@H]1NC(=O)[C@H]1NC(=O)[C@H](CC1CCCCC1)NS(=O)(=O)/C=C/c1ccccc1` [Example 8, (3S,4S)-3-{2S-2-(phenylethenylsulfonyl)amino-2-cyclohexylmethyl-acetamido}-4-acetoxy-azetidin-2-one] are 11000 nM and 2160 nM.
Turning to `Cc1cccc(O[C@@H]2NC(=O)[C@H]2NC(=O)[C@H](CC2CCCCC2)NC(=O)OCc2ccccc2)c1` [Example 9A, (3S,4S)-3-(2S-2-benzyloxycarbonylamino-2-cyclohexylmethyl-acetamido)-4-(3-methyl-phenoxy)-azetidin-2-one], the half-maximal inhibitory concentration (IC50) at cathepsin B [1] was found to be 6900 nM; on cathepsin L [2], 83 nM.
The corresponding values for `Cc1cccc(O[C@H]2NC(=O)[C@H]2NC(=O)[C@H](CC2CCCCC2)NC(=O)OCc2ccccc2)c1` [Example 9B, (3S,4R)-3-(2S-2-benzyloxycarbonylamino-2-cyclohexylmethyl-acetamido)-4-(3-methyl-phenoxy)-azetidin-2-one] are 250 nM and 3 nM.
The corresponding values for `O=C(C=Cc1ccncc1)N[C@@H](CC1CCCCC1)C(=O)N[C@@H]1C(=O)N[C@H]1Oc1ccccc1` [Example 10, (3S,4S)-3-{2S-2-[3-(pyridin-4-yl)propenoyl]amino-2-cyclohexylmethyl-acetamido}-4-phenoxy-azetidin-2-one] are 1000 nM and 400 nM.
Turning to `O=C(C=Cc1cccnc1)N[C@@H](CC1CCCCC1)C(=O)N[C@@H]1C(=O)N[C@H]1Oc1ccccc1` [Example 11, (3S,4S)-3-{2S-2-[3-(pyridin-3-yl)propenoyl]amino-2-cyclohexylmethyl-acetamido}-4-phenoxy-azetidin-2-one], the IC50 on cathepsin B [1] turned out to be 2200 nM; on cathepsin L [2] it was 430 nM.
Turning to `N[C@@H](Cc1ccc(O[C@@H]2NC(=O)[C@H]2NC(=O)[C@H](Cc2ccccc2)NC(=O)CCc2ccccc2)cc1)C(=O)O` [Ref. Compd.], the “Inhibition Cathepsin B” value on cathepsin B [5] (30 mg/kg intraperitoneal) was determined as 37%; at cathepsin B [5] (70 mg/kg intraperitoneal) it was 56%. Besides, the figures for the “Inhibition Cathepsin L” value at cathepsin L [6] (30 mg/kg intraperitoneal) and on cathepsin L [6] (70 mg/kg intraperitoneal) were 30% and 55%, respectively.
